Source: patent US7683168B2, “Compositions of novel opioid compounds and method of use thereof” (priority 2005, dated 2010)

Tests used:
[1] = system: tail-pinch antinociception in mice; conditions: in vivo; for mouse TP % MPE: iv, 10 mg/kg
[2] = molecular target: T1, δ opioid receptor (Rattus norvegicus, UniProt P33533); assay: radioligand binding, δ opioid receptor, rat brain membranes; conditions: cell marked (rat), tritium-labeled Deltorphin II
T1 construct: tissue Pel-Freeze Biological Inc. (Rogers, Ark.); host or cells: rat whole brain

[3] = system: mouse vas deferens; assay: electrically stimulated mouse vas deferens (MVD) ED50; assay type: cell-based; conditions: ED50, inhibition of electrically induced contractions
[4] = molecular target: T2, μ opioid receptor (Rattus norvegicus, UniProt P33535); assay: radioligand binding, μ opioid receptor, rat brain membranes; conditions: cell marked (rat), tritium-labeled DAMGO
T2 construct: tissue Pel-Freeze Biological Inc. (Rogers, Ark.); host or cells: rat whole brain

[5] = system: seizure-like convulsions in mice; assay: mouse seizure-like convulsions; assay type: in vivo
Procedure, shortened: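 Male CD-1 mice (Charles River, Raleigh, N.C.) of 20-25 g were dosed and watched for one hour to detect seizure-like convulsions mediated by central delta receptors. An event was counted when clonic or tonic/clonic muscle movements involved the whole body, usually followed by brief catalepsy, judged by no attempt to withdraw front paws from a bar 2-3 inches above the floor.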

[6] = rat analgesia; assay type: in vivo
[7] = molecular target: T3, κ opioid receptor (Cavia porcellus, UniProt P41144); assay: radioligand binding, κ opioid receptor, guinea pig cerebellum; conditions: tritium-labeled U69593
T3 construct: tissue Pel-Freeze Biological Inc. (Rogers, Ark.); host or cells: guinea pig cerebellum

[8] = system: guinea pig ileum; assay: electrically stimulated guinea pig ileum (GPI) ED50; assay type: cell-based; conditions: Cavia porcellus; ED50, inhibition of electrically induced contractions
Experimental: Further the compounds of formula (1) were evaluated for in vitro opioid receptor activity in various receptor systems, including mouse vas deferens (Mouse Vas Deferens ED50), and guinea pig ileum (Guinea Pig Ileum ED50). The assay procedures used for such determinations of receptor activity are set out below.
Intact ileums (about 3 cm length) were removed from guinea pig and suspended with 1 g of tension in a bath chamber as described for the vasa deferentia. The ileums were stimulated with electrical square-wave pulses of 0.1-Hz, 1 msec pulse duration at supramaximal voltage.
The ED50 values were extrapolated from curves showing the dose concentration plotted against the response (J. A. H. Lord, A. A. Waterfield, J. Hughes, H. W. Kosterlitz, Nature 267, 495, (1977)).

[9] = molecular target: T4, human delta receptor (Homo sapiens, UniProt P41143); assay: radioligand binding, human delta receptor, HEK-293 cell membranes; conditions: cell not marked (rat), species not given, read-out: δ
T4 construct: purchased Perkin Elmer, Boston, Mass; 6110549; host or cells: HEK-293 cells

[10] = molecular target: T5, human mu opioid receptor (Homo sapiens, UniProt P35372); assay: radioligand binding, human mu opioid receptor, CHO cell membranes; conditions: species not given, read-out: μ
T5 construct: purchased Perkin Elmer, Boston, Mass; 6110535; host or cells: CHO cells
T5 sequence (P35372 whole entry): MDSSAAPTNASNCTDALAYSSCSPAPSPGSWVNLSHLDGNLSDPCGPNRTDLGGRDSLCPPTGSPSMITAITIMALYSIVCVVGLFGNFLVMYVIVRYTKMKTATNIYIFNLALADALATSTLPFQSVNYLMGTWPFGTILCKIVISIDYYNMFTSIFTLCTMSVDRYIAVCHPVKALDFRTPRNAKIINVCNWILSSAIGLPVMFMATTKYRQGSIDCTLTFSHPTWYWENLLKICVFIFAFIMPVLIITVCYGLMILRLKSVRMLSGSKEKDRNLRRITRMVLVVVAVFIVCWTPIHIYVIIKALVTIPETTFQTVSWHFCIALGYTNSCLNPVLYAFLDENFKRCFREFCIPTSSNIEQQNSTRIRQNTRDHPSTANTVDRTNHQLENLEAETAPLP

T2 sequence (P33535 whole entry): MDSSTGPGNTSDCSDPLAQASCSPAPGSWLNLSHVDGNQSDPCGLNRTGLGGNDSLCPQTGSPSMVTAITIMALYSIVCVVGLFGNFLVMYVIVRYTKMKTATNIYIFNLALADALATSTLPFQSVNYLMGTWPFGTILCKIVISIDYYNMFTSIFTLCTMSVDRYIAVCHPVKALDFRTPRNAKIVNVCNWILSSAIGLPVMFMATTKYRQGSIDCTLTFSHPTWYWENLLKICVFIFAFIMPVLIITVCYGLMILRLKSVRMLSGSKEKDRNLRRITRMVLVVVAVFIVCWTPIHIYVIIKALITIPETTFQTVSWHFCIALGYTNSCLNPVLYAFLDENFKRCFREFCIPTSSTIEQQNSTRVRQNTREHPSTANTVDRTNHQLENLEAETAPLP
T4 sequence (P41143 whole entry): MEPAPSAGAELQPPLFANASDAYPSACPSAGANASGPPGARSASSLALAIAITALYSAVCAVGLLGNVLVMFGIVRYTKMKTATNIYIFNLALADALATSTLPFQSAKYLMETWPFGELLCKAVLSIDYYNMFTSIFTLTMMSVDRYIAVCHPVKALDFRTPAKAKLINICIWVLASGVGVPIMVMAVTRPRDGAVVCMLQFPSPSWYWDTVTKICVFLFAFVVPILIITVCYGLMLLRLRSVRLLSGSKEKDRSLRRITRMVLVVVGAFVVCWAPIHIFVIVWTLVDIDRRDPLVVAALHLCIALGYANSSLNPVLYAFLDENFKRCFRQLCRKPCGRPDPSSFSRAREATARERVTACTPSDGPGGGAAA
T1 sequence (P33533 whole entry): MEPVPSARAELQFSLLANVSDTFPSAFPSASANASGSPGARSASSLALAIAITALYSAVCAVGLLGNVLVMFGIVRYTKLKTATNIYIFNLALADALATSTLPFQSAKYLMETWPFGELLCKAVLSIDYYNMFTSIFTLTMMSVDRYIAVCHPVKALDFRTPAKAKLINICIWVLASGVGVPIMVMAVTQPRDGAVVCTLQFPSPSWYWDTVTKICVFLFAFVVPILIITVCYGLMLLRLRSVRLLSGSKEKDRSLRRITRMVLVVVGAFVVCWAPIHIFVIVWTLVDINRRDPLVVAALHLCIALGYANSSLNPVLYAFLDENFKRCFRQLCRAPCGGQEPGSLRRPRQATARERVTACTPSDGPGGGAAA
T3 sequence (P41144 whole entry): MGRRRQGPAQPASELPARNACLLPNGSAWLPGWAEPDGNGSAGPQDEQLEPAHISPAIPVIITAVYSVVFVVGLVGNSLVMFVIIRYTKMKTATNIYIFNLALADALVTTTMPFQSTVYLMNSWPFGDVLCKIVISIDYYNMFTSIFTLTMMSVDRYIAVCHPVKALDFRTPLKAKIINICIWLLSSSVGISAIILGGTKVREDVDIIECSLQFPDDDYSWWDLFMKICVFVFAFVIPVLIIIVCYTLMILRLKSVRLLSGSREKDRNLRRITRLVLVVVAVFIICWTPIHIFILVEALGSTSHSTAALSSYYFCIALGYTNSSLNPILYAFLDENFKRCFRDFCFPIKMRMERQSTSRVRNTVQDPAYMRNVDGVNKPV

Row | SMILES | mouse TP % MPE [1] | Ki [2] [nM] | EC50 [3] [nM] | Ki [4] [nM] | Seiz. ([5]; 10 mg/kg IV) | rat analg. [6] | Ki [7] [nM] | Seiz. ([5]; 3 mg/kg IV) [%] | EC50 [8] [nM] | Seiz. ([5]; 20 mg/kg IV) | Seiz. ([5]; 200 mg/kg PO) | Seiz. ([5]; 100 mg/kg SC) | Ki [9] [nM] | Ki [10] [nM] | maximum time of response in tail-pinch assay ([1]; mouse) [s]
1 | C=CCN1C[C@H](C)N(C(c2cccc(O)c2)c2cccc(C(=O)N3CCCN(C)CC3)c2)C[C@H]1C (stereo partly shown) | 0% 10 mg/kg IV (mouse TP- 54% MPE; no rat analg.) | 5.45 | 26.3 | 1.58 | 0% | no rat analg. | 1.93 | – | – | – | – | – | – | – | –
2 | C=CCN1C[C@H](C)N(C(c2cccc(O)c2)c2cccc(C(=O)N3CCCNCC3)c2)C[C@H]1C (stereo partly shown) | – | 4.68 | 6.07 | 1.61 | 45% 10 mg/kg IV | – | 1.6 | – | – | – | – | – | – | – | –
3 | C=CCN1C[C@H](C)N(C(c2cccc(O)c2)c2cccc(C(=O)N3CCCN(CC(=O)OCC)CC3)c2)C[C@H]1C (stereo partly shown) | – | 1.35 | 1.36 | 3.33 | 25% 10 mg/kg IV | – | 4.15 | – | – | – | – | – | – | – | –
4 | C=CCN1C[C@H](C)N(C(c2cccc(O)c2)c2cccc(C(=O)N3CCCN(CC(=O)O)CC3)c2)C[C@H]1C (stereo partly shown) | – | 3.53 | 4.7 | 3.03 | 10% | – | 12.7 | 0 | – | – | – | – | – | – | –
5 | C=CCN1C[C@H](C)N([C@@H](c2cccc(O)c2)c2cccc(C(=O)N3CCCN(CCC(=O)OCC)CC3)c2)C[C@H]1C | – | 0.57 | 5.58 | 0.55 | 30% 10 mg/kg IV | – | 1.09 | – | 112 | – | – | – | – | – | –
6 | C=CCN1C[C@H](C)N([C@@H](c2cccc(O)c2)c2cccc(C(=O)N3CCCN(CCC(=O)O)CC3)c2)C[C@H]1C | – | 3.03 | 5.39 | 3.89 | 0% 10 mg/kg IV | – | 9.85 | – | 117 | – | – | – | – | – | –
7 | CCOC(=O)CCN1CCCN(C(=O)c2cccc([C@H](c3cccc(O)c3)N3C[C@@H](C)N(Cc4ccccc4)C[C@@H]3C)c2)CC1 | 80% 10 mg/kg IV (42% MPE mouse TP) | 1.2 | 1.5 | 0.75 | 80% 10 mg/kg IV (42% MPE mouse TP) | – | 2.98 | – | 836 | – | – | – | – | – | –
8 | C[C@@H]1CN([C@@H](c2cccc(O)c2)c2cccc(C(=O)N3CCCN(CCC(=O)O)CC3)c2)[C@@H](C)CN1Cc1ccccc1 | – | 4 | 0.52 | 3.9 | – | – | 3830 | – | 52.2 | 0% 200 mg/kg PO 0% 20 mg/kg IV | 0% 200 mg/kg PO 0% 20 mg/kg IV | – | – | – | –
9 | C=CCN1C[C@H](C)N([C@@H](c2cccc(O)c2)c2cccc(C(=O)N3CCCN(CCCC(=O)OCC)CC3)c2)C[C@H]1C | – | 1.66 | 22.6 | 1.76 | 0% 10 mg/kg IV | – | 1.22 | – | 198 | – | – | – | – | – | –
10 | C=CCN1C[C@H](C)N([C@@H](c2cccc(O)c2)c2cccc(C(=O)N3CCCN(CCCC(=O)O)CC3)c2)C[C@H]1C | – | 2.75 | 2.2 | 5.57 | 0% 10 mg/kg IV | – | 16.3 | – | 186 | – | – | – | – | – | –
11 | C=CCN1C[C@H](C)N([C@@H](c2cccc(O)c2)c2cccc(C(=O)N3CCCN(CCCCC(=O)OCC)CC3)c2)C[C@H]1C | – | 2.9 | 43.7 | 1.25 | 0% 10 mg/kg IV | – | 0.6 | – | 231 | – | – | – | – | – | –
12 | C=CCN1C[C@H](C)N([C@@H](c2cccc(O)c2)c2cccc(C(=O)N3CCCN(CCCCC(=O)O)CC3)c2)C[C@H]1C | – | 6.43 | 3.33 | 9 | 0% 10 mg/kg IV 0% 100 mg/kg SC | – | 27.7 | – | – | – | – | 0% 10 mg/kg IV 0% 100 mg/kg SC | – | – | –
13 | C=CCN1C[C@H](C)N(C(c2ccc(C(=O)N3CCCN(CCCC(=O)OCC)CC3)cc2)c2cccc(O)c2)C[C@H]1C (stereo partly shown) | – | 1.9 | 1.44 | 2.6 | 0% 10 mg/kg IV | – | 1.2 | – | 526 | – | – | – | – | – | –
14 | C=CCN1C[C@H](C)N(C(c2ccc(C(=O)N3CCCN(CCCC(=O)O)CC3)cc2)c2cccc(O)c2)C[C@H]1C (stereo partly shown) | – | 3.94 | 0.95 | 16.1 | 0% 10 mg/kg IV 0% 100 mg/kg SC | – | 29.2 | – | 439 | – | – | 0% 10 mg/kg IV 0% 100 mg/kg SC | – | – | –
15 | C=CCN1C[C@H](C)N([C@@H](c2cccc(O)c2)c2cccc(C(=O)N3CCC(C(=O)OCC)CC3)c2)C[C@H]1C [Example 119, 1-{3-[(R)-((2S,5R)-4-Allyl-2,5-dimethylpiperazin-1-yl)-(3-hydroxy-phenyl)methyl]benzoyl}piperidine-4-carboxylic acid ethyl ester] | – | – | 1.96 | – | 80% 10 mg/kg IV | – | – | – | 86.3 | – | – | – | 2.95 | 0.54 | –
16 | CCOC(=O)C1CCN(C(=O)c2cccc([C@H](c3cccc(O)c3)N3C[C@@H](C)N(Cc4ccccc4)C[C@@H]3C)c2)CC1 [Example 122, 1-{3-[(R)-((2S,5R)-4-Benzyl-2,5-dimethyl-piperazin-1-yl)-(3-hydroxy-phenyl)-methyl]-benzoyl}-piperidine-4-carboxylic acid ethyl ester] | – | – | 0.82 | – | 70% 10 mg/kg IV | – | – | – | 153 | – | – | – | 4.5 | 1.9 | –
17 | CCOC(=O)C1CCN(C(=O)c2cccc([C@H](c3cccc(O)c3)N3C[C@@H](C)N(Cc4cccc(F)c4)C[C@@H]3C)c2)CC1 [Example 124, 1-{3-[(R)-[(2S,5R)-4-(3-Fluoro-benzyl)-2,5-dimethyl-piperazin-1-yl]-(3-hydroxy-phenyl)-methyl]-benzoyl}-piperidine-4-carboxylic acid ethyl ester] | – | – | 2.54 | – | 10% 10 mg/kg IV | – | – | – | 1680 | – | – | – | 28.6 | 3.5 | –
18 | CCOC(=O)C1CCN(C(=O)c2cccc([C@H](c3cccc(O)c3)N3C[C@@H](C)N(CC4CC4)C[C@@H]3C)c2)CC1 [Example 126, 1-{3-[(R)-((1S,4R)-4-Cyclopropylmethyl-2,5-dimethyl-piperazin-1-yl)-(3-hydroxy-phenyl)-methyl]-benzoyl}-piperidine-4-carboxylic acid ethyl ester] | – | – | 8.64 | – | 10% 10 mg/kg IV | – | – | – | 3310 | – | – | – | 3.7 | 1.5 | –
19 | C=CCN1C[C@H](C)N([C@@H](c2cccc(O)c2)c2cccc(C(=O)N3CCC(O)CC3)c2)C[C@H]1C [Example 134, {3-[(R)-((2S,5R)-4-Allyl-2,5-dimethyl-piperazin-1-yl)-(3-hydroxy-phenyl)-methyl]-phenyl}-(4-hydroxy-piperidin-1-yl)-methanone] | – | – | 5.44 | – | 0% 10 mg/kg IV | – | – | – | 46.7 | – | – | – | 0.36 | 1.1 | –
20 | CN1CC[C@]23c4c5ccc(O)c4O[C@H]2[C@@H](O)C=C[C@H]3[C@H]1C5 [morphine, reference compound] | – | – | – | – | – | – | – | – | – | – | – | – | – | – | 20
